For data set [1] the following is noted: in vivo; cited from earlier work.
For another data set, the system named is blood lymphocytes. Nature of the data set: Zinc dose response: lymphocyte response to PHA (stimulation index). It is filed as in vivo, human. To be noted: children age 4-12 years, diet zinc 5 mg, median (standard deviation). The method, then: (§1) The basic concept underlying the assessment of the most optimum nutrient amounts for a given age group uses the principle of“dose-response curves”. At least four groups of individuals were provided with various amounts of a given nutrient and their immune responses were measured using established and accepted techniques. The amount of a nutrient that gave the best response was considered the optimum amount. Dose response curves were determined for all vitamins and trace elements considered essential for human health, particularly immunity.
Data for the dose response curve for zinc in a group of 4 to 12 year old children is shown in FIGS. 1 and 2, with the total amount of zinc taken is shown for each group. To determine the magnitude of immune response, an aliquot of blood was withdrawn from each subject in the study, blood lymphocytes were separated, washed and mixed with the mitogen phytohemagglutinin (PHA) in previously determined optimum amount. The optimum amount of PHA used in the experiments was predetermined by a set of dose response curves using lymphocytes of a healthy donor and four different concentrations of PHA. After culture in a sterile environment for 72 hours, the cells were washed and mixed with radioactive thymidine. The same steps were undertaken in a control sample in which only the culture medium was used, not PHA. The cells were washed and radioactivity determined.
(§2) The ratio of radioactivity in the test samples divided by radioactivity in control samples gave the “stimulation response” shown in FIGS. 1 and 2.

The next data set deals with Thymulin activity. Nature of the data set: Zinc dose response: thymulin activity. It is filed as in vivo, human. To be noted: children age 4-12 years. The method, then: as §1, §2
A further data set relates to Interleukin-2. Nature of the data set: Zinc dose response: interleukin-2. It is filed as in vivo, human. To be noted: children age 4-12 years, median (standard deviation). On the procedure:
as §1, §2

The test system of a further data set is Antibody response. The experiment in a line: Zinc dose response: antibody response. It is filed as in vivo, human. The settings on record: children age 4-12 years. On the procedure:
as §1, §2

Consider `Cc1ncc(C[n+]2csc(CCO)c2C)c(N)n1` [Thiamin], for which the “biologic half-life in the body” value in data set [1] is “about 15 days”.

For `[Zn]` [zinc], the “Lymphocyte response to PHA (stimulation index)” value in the data set with blood lymphocytes (7 mg supplemental zinc) was 86(11); in the data set on blood lymphocytes (20 mg supplemental zinc), 54(9); in the data set on blood lymphocytes (50 mg supplemental zinc), 41(8). The “Thymulin activity (median reciprocal titre)” value in the data set with Thymulin activity (7 mg supplemental zinc) was determined as 216; in the data set with Thymulin activity (20 mg supplemental zinc), 187; in the data set on Thymulin activity (50 mg supplemental zinc), 166. Moreover, the Interleukin-2 in the data set with Interleukin-2 (7 mg supplemental zinc) was 16(2.0) units/ml; in the data set on Interleukin-2 (20 mg supplemental zinc) it was 11(1.5) units/ml; in the data set with Interleukin-2 (50 mg supplemental zinc) it was 8(1.3) units/ml. Moreover, the “Antibody response (median reciprocal titre)” value in the data set on Antibody response (7 mg supplemental zinc) was found to be 318; with Antibody response (20 mg supplemental zinc) it was 129; in the data set with Antibody response (50 mg supplemental zinc), 73.

The values are drawn from patent US6565891B1, “Nutritional supplement for children” (Tsar Health Private Ltd., priority 2002, dated 2003).
